Legend:
[1] = system: platelets; assay: Inhibition of platelet aggregation (turbidimetric, washed platelets); assay type: cell-based; settings: washed rabbit platelets, AA; for inhibitory effect on platelet aggregation induced by different inducers: inducers thrombin, collagen, PAF, read 5 minutes after the inducer
Experimental: In vitro assays can be used to evaluate the efficacy of a fused pyrazolyl compound of this invention in inhibiting platelet aggregation; which is attributable to low intracellular cGMP levels. For example, the compound is incubated in a platelet suspension containing a platelet aggregation factor, and the degree of aggregation is measured turbidimetrically with a dual-channel lumiaggregometer and converted into a percentage value by the method described in Teng et al., Biochem. Biophys Acta. 1987, 924:375-382.
EDTA was added to blood collected from the marginal ear vein of a rabbit to reach a final EDTA concentration of 6 mM. The EDTA-containing blood was then centrifuged at 90×g for 10 minutes at the room temperature. The supernatant, a platelet-rich plasma, was further centrifuged at 500×g for 10 minutes. The platelet pellets thus obtained were washed with a solution containing EDTA (2 mM) and serum albumin (3.5 mg/mL), and then centrifuged again at 500×g for 10 minutes. The pellets were then washed with an EDTA-free Tyrode's solution of the following composition (mM): NaCl (136.8), KCl (2.8), NaHCO3 (11.9), MgCl2 (1.1), NaH2PO4 (0.33), CaCl2 (1.0), and glucose (11.2). After centrifugation under the same conditions, the platelet pellets were suspended in the EDTA-free Tyrode's solution described above. The platelet number was counted by a Coulter Counter (Model ZM) and adjusted to 4.5×10^8 platelets/mL.
A compound to be tested was added to 4 platelet suspensions, which were then incubated at 37° C. for 3 minutes under a stirring condition (900 rpm). One minute after the stirring, four aggregation inducers, i.e., thrombin, collagen, arachidonic acid (AA), and platelet aggregation factor (PAF), were respectively added into the 4 suspensions, causing the platelets to aggregate. Platelet aggregation in each suspension was measured with a dual-channel lumiaggregometer (Model 1020, Payton, Canada) by the turbidimetric method described in Born et al., J. Physiol. 1963, 168:178-195. The percentage values of the platelet aggregation, determined 5 minutes after the addition of each aggregation inducer, were calculated by the method described in Teng et al., Biochem. Biophys Acta. 1987, 924:375-382.

[2] = system: sGC; assay: Activation of sGC (conversion of [α-32P]GTP to cGMP by platelet lysate supernatant); assay type: biochemical; settings: 100 μM compound; washed rabbit platelet supernatant; 30° C., 10 minutes
Experimental: The efficacy of a compound in activating sGC can be evaluated in vitro by the following assay. Washed platelets are suspended in a buffer and disrupted by sonication. The lysate is then centrifuged to obtain a supernatant which is used as the source of sGC. An aliquot of the supernatant and the compound to be tested are added into a buffer containing GTP, a substrate for sGC. The activity of sGC can be determined by the method described in Gerzer et al., J. Pharmacol. Exp. Ther. 1983, 226:180.
Washed rabbit platelets were prepared by the method described in Teng et al., Thromb. Haemost. 1988, 59:304. They were then suspended in 50 mM pH 7.4 Tris-HCl buffer and subsequently disrupted by sonication. The lysate thus obtained was centrifuged at 39,000×g at 4° C. for 20 minutes, and the supernatant was used as the source of sGC. Two 50 μL aliquots of the supernatant were respectively added to two 150 μL pH 7.4 Tris-HCl (50 mM) buffer solutions, each containing GTP (0.2 mM, containing 1×10^6 cpm [α-^32P]GTP), MgCl2 (5 mM), cGMP (2.5 mM), creatine phosphate (15 mM), and creatine phosphokinase (30 μg). One of the two solutions also contained 100 μM compound 3. After incubation at 30° C. for 10 minutes, conversion of GTP to cGMP by sGC was terminated with HCl (200 μL, 0.5 N). […] Radioactivity ([^32P]cGTP) was measured in a liquid scintillation counter to determine the amount of […].

[3] = system: PDEs; assay: Inhibition of PDE (conversion of [3H]cGMP by platelet lysate supernatant); assay type: biochemical; settings: 10 μM compound; washed human platelet supernatant; 10 μM cGMP; 37° C., 30 minutes
Experimental: The efficacy of a compound in inhibiting PDEs can be evaluated in vitro by the following assay. Washed platelets are suspended in a Tris-HCl buffer and disrupted by sonication. The lysate is centrifuged to obtain a supernatant which contains PDEs. An aliquot of the supernatant is taken to prepare a PDE-containing solution. The compound to be tested and cGMP (a substrate for PDE) are added to the solution. Ophiophagus hannah snake venom is subsequently added to remove the phosphate in 5′-GMP (converted from cGMP by PDEs) to form uncharged guanosine. An ion-exchange resin is used to remove the remaining cGMP. The cGMP-free solution is then centrifuged, and an aliquot of the supernatant is taken for quantification of the uncharged guanosine in a liquid scintillation counter. Activity of PDEs is evaluated based on the amount of the uncharged guanosine.
Washed human platelets were prepared by the method described in Teng et al., Biochem. Biophys. Acta. 1989, 990:315-320. They were then suspended in 50 mM pH 7.4 Tris-HCl buffer (containing 5 mM MgCl2) and subsequently disrupted by sonication at 4° C. […] Each cGMP-free solution thus obtained was then centrifuged, and an aliquot (0.5 mL) of the supernatant was taken for quantification of uncharged guanosine in a liquid scintillation counter.

## COC(=O)c1ccc(-c2nn(Cc3ccccc3)c3cc4c(cc23)OCO4)o1 [Compound 1, 1-benzyl-3-(5′-methoxycarbonyl-2′-furyl)-5,6-methylenedioxoindazole]
[1]
  inhibitory effect on platelet aggregation induced by different inducers: showed inhibitory effect on platelet aggregation

## O=C(O)c1ccc(-c2nn(Cc3ccccc3)c3cc4c(cc23)OCO4)o1 [Compound 2, 1-benzyl-3-(5′-hydroxycarbonyl-2′-furyl)-5,6-methylenedioxoindazole]
[1]
  inhibitory effect on platelet aggregation induced by different inducers: showed inhibitory effect on platelet aggregation

## OCc1ccc(-c2nn(Cc3ccccc3)c3cc4c(cc23)OCO4)o1 [Compound 3, 1-benzyl-3-(5′-hydroxymethyl-2′-furyl)-5,6-methylenedioxoindazole]
[2]
  activation of sGC: effective activator of sGC
[1]; aggregation induced by thrombin, collagen, and PAF
  relative effectiveness in inhibiting platelet aggregation among compounds 1-4: the most effective
[1]
  inhibitory effect on platelet aggregation induced by different inducers: showed inhibitory effect on platelet aggregation
[3]
  inhibition of PDEs: potent inhibitor of PDEs

## COCc1ccc(-c2nn(Cc3ccccc3)c3cc4c(cc23)OCO4)o1 [Compound 4, 1-benzyl-3-(5′-methoxymethyl-2′-furyl)-5,6-methylenedioxoindazole]
[1]
  inhibitory effect on platelet aggregation induced by different inducers: showed inhibitory effect on platelet aggregation

From patent publication US20030004355A1, “Fused pyrazolyl compounds” (priority 2001, published 2003)
